Assay type in all cases: cell-based
For one assay, the system named is MV-4-11. Put plainly: CTG cell survival assay, MV-4-11. The note with it: Homo sapiens, MV4-11, MV-4-11 cells. An excerpt: (§1) 2. CTG Cell Survival Assay:
(§2) ATP is necessarily produced during the metabolic activities of viable cells, and there is a linear relationship between the content of ATP and the number of viable cells. Cell viability assay by CTG chemiluminescence is a general method for detecting the number of viable cells in the culture cells based on this principle. The addition of the CellTiter-Glo (CTG) reagent may induce cell lysis and produce chemiluminescent signals directly proportional to the amount of ATP in the well-plate, and thereby the cell proliferation activity in the well-plate can be measured by the reading values from the chemiluminescence.
(§3) 2.1 Experimental Materials and Instruments:
2.1.1 Experimental Materials: compounds to be tested, cell basal culture medium, RPMI Medium 1640 (Invitrogen, Cat#11875-093), fetal calf serum (FBS): Hyclone FETAL BOVINE SERUM DEFINED (Invitrogen, Cat#SH30070.03), antibiotics: Penicilin Streptomycin (Invitrogen, Cat#15140-122), phosphate buffer (Corning Cellgro, Cat#R21-040-CV), cell digestive solution: 0.25% Trypsin-EDTA (Invitrogen, Cat#25200-056), CTG detection kit: Promega, Cat#G7571, flat-bottom 96-well black bottom plate: NUNC, Cat#165305, T25 culture flask: NUNC, Cat#156367, T75 culture flask: NUNC, Cat#156439
2.2 Experimental Instruments: Carbon Dioxide Incubator, SANYO-MCO-20AIC, Biosafe Cabinet: BSC-1360-LIIA2, Table-Top High-Speed Refrigerated Centrifuge: SorvallST 16R, Microplate Rapid Oscillator: QB-9001, M3 Reader: SpectraMax M3, Microscope: OLYMPUS-CKX41/CKX31.
2.3 Preparation of Solutions and Reagents: Formulation of cell growth medium: RPMI Medium 1640+10% FBS+antibiotics, others: trypsin digestive solution, phosphate buffer (PBS), DMSO, CTG detection kit.
2.4 Experimental Procedure: • 1.4.1 Cell Thawing: Cryogenic vials were removed from the liquid nitrogen container, directly immersed in a water bath at 37° C., and shaked from time to time to thaw. The cryogenic vials were removed from the water bath at 37° C., and transferred to the biosafe cabinet. Their lids were opened, and the cell suspensions were aspirated with pipettes, added to centrifuge tubes, and then added with more than 10 volumes of culture solution, mixed well; centrifuged for 5 min at 1000 rpm; the supernatant was discarded, and medium containing cell growth was added to resuspend cells. All cell suspensions were seeded to the T25 culture flasks and static cultured in an incubator at 37° C.; the culture solution were changed once on the next day, and continued to be cultured. • 2.4.2 Cell Passaging: After cells were grown to logarithmic phase and were 80%-90% confluent, cells were removed and placed in the biosafe cabinet, the old culture solution was discarded, and the cells were wetted and washed with PBS once or twice. An appropriate amount of 0.25% Trypsin-EDTA solution was added to the culture flasks. The flasks were placed in the carbon dioxide incubator at 37° C. for 2-5 min. An appropriate amount of cell growth medium containing 10% PBS was added to terminate the digestion, lightly swished, and transferred to the centrifuge tubes and centrifuged for 5 min at 1000 rpm. The cells were prepare (into cell suspensions for passaging and experimental use. • 2.4.3 Cell Plating • 2.4.3.1 A cell suspension was prepared: After cells were grown to logarithmic phase and were 80%-90% confluent, the cells were removed to the biosafe cabinet, and the old culture solution was discarded, then the cells were wetted and washed with PBS once or twice. An appropriate amount of 0.25% Trypsin-EDTA solution was added to the culture flask. The flask was placed in a carbon dioxide incubator at 37° C. for 2-5 min. An appropriate amount of the cell growth medium containing 10% PBS was added to terminate digestion, and was lightly swished. The solution was transferred to a centrifuge tube, centrifuged for 5 min at 1000 rpm, and counted. […]

For another assay, the system named is SK-BR3/BT474. The experiment in a line: CTG cell survival assay, SK-BR3/BT474. The note with it: SK-BR3/BT474 cells.
Source text: as §1, §2, §3
(§4) 2.4 Experimental Procedure: • 1.4.1 Cell Thawing: Cryogenic vials were removed from the liquid nitrogen container, directly immersed in a water bath at 37° C., and shaked from time to time to thaw. The cryogenic vials were removed from the water bath at 37° C., and transferred to the biosafe cabinet. Their lids were opened, and the cell suspensions were aspirated with pipettes, added to centrifuge tubes, and then added with more than 10 volumes of culture solution, mixed well; centrifuged for 5 min at 1000 rpm; the supernatant was discarded, and medium containing cell growth was added to resuspend cells. All cell suspensions were seeded to the T25 culture flasks and static cultured in an incubator at 37° C.; the culture solution were changed once on the next day, and continued to be cultured. • 2.4.2 Cell Passaging: After cells were grown to logarithmic phase and were 80%-90% confluent, cells were removed and placed in the biosafe cabinet, the old culture solution was discarded, and the cells were wetted and washed with PBS once or twice. An appropriate amount of 0.25% Trypsin-EDTA solution was added to the culture flasks. The flasks were placed in the carbon dioxide incubator at 37° C. for 2-5 min. An appropriate amount of cell growth medium containing 10% PBS was added to terminate the digestion, lightly swished, and transferred to the centrifuge tubes and centrifuged for 5 min at 1000 rpm. The cells were prepare (into cell suspensions for passaging and experimental use. • 2.4.3 Cell Plating • 2.4.3.1 A cell suspension was prepared: After cells were grown to logarithmic phase and were 80%-90% confluent, the cells were removed to the biosafe cabinet, and the old culture solution was discarded, then the cells were wetted and washed with PBS once or twice. An appropriate amount of 0.25% Trypsin-EDTA solution was added to the culture flask. The flask was placed in a carbon dioxide incubator at 37° C. for 2-5 min. An appropriate amount of the cell growth medium containing 10% PBS was added to terminate digestion, and was lightly swished. The solution was transferred to a centrifuge tube, centrifuged for 5 min at 1000 rpm, and counted. […] Secondly, 20 uM of the compound to be tested was diluted with the cell growth medium containing 0.2% DMSO in 3-fold dilution to obtain 9 concentrations, and there were 10 concentration gradients in total. • 2.4.4.3 Addition of the compounds to be tested: the prepared gradient dilution solutions of compounds to be tested were taken and added to the cell culture plate at 100 ul/well; at this point, the maximum concentration of compounds to be tested was 10 uM, and the concentration of DMSO was 0.1%.

The next assay relates to PC-3. Put plainly: CTG cell survival assay, PC-3. The note with it: Homo sapiens, PC-3 cells.
Source text: as §1, §2, §3, §4

What is called EC50 is the concentration giving half of the maximal effect.

Structures are written as SMILES.

`Cn1cc(-c2ccc(-c3ccc4ncc5c(c4c3)n([C@H]3CCN(S(C)(=O)=O)C3)c(=O)n5C)cn2)nn1` [Example 45, (S)-3-methyl-8-(6-(1-methyl-1H-1,2,3-triazol-4-yl)pyridin-3-yl)-1-(1-(methanesulfonyl)pyrrolidin-3-yl)-1H-imidazo quinolin-2(3H)-one]: the EC50 in the assay with MV-4-11 was under 20 nM; with SK-BR3/BT474, under 20 nM; with PC-3, under 10 nM.

Consider `Cn1ccc(-c2ccc(-c3ccc4ncc5c(c4c3)n([C@H]3CCN(S(C)(=O)=O)C3)c(=O)n5C)cn2)n1` [Example 47, (S)-3-methyl-8-(6-(1-methyl-1H-pyrazol-3-yl)pyridin-3-yl)-1-(1-(methanesulfonyl)pyrrolidin-3-yl)-1H-imidazo[4,5-c]quinolin-2(3H)-one], for which the 50% effective concentration (EC50) with MV-4-11 was under 100 nM; with SK-BR3/BT474 it was 40 nM; in the assay with PC-3, 30 nM.

As to `Cn1cc(-c2ccc(-c3ccc4ncc5c(c4n3)n([C@@H]3CCCN(S(C)(=O)=O)C3)c(=O)n5C)cn2)cn1` [Example 49, (R)-3-methyl-8-(6-(1-methyl-1H-pyrazol-4-yl)pyridin-3-yl)-1-(1-(methanesulfonyl)piperidin-3-yl)-1H-imidazo[4,5-c][1,5]naphthyridin-2(3H)-one], the half-maximal effective concentration (EC50) is under 20 nM in the assay with MV-4-11, 20 nM in the assay with SK-BR3/BT474 and 10 nM with PC-3.

With `Cn1cc(-c2ccc(-c3ccc4ncc5c(c4n3)n([C@H]3CCN(S(C)(=O)=O)C3)c(=O)n5C)cn2)nn1` [Example 50, (S)-3-methyl-8-(6-(1-methyl-1H-1,2,3-triazol-4-yl)pyridin-3-yl)-1-(1-(methanesulfonyl)pyrrolidin-3-yl)-1H-imidazo[4,5-c][1,5]naphthyridin-2(3H)-one], the EC50 is under 30 nM with MV-4-11, 30 nM with SK-BR3/BT474 and 20 nM in the assay with PC-3.

Regarding `Cn1cc(-c2ccc(-c3ccc4ncc5c(c4c3)n([C@H]3CC[C@@H](O)CC3)c(=O)n5C)cn2)nn1` [Example 51, 1-((1s,4s)-4-hydroxycyclohexyl)-3-methyl-8-(6-(1-methyl-1H-1,2,3-triazol-4-yl)pyridin-3-yl)-1H-imidazo[4,5-c]quinolin-2(3H)-one], the EC50 in the assay with MV-4-11 is under 20 nM; in the assay on SK-BR3/BT474, 10 nM; in the assay with PC-3, under 10 nM.

For the molecule `CCNC(=O)N1CCC[C@@H](n2c(=O)n(C)c3cnc4ccc(-c5ccc(-c6cnn(C)c6)nc5)cc4c32)C1` [Example 55, (R)—N-ethyl-3-(3-methyl-8-(6-(1-methyl-1H-pyrazol-4-yl)pyridin-3-yl)-2-oxo-2,3-dihydro-1H-imidazo[4,5-c]quinolin-1-yl)piperidine-1-formamide], the EC50 in the assay with MV-4-11 was found to be 800 nM; in the assay with SK-BR3/BT474 it was 300 nM; in the assay with PC-3, 300 nM.

With `Cn1cc(-c2ccc(-c3ccc4ncc5c(c4c3)n([C@@H]3CCCN(S(=O)(=O)C(F)(F)F)C3)c(=O)n5C)cn2)cn1` [Example 56, (R)-3-methyl-8-(6-(1-methyl-1H-pyrazol-4-yl)pyridin-3-yl)-1-(1-((trifluoromethyl)sulfonyl)piperidin-3-yl)-1H-imidazo[4,5-c]quinolin-2(3H)-one], the concentration for a half-maximal effect (EC50) is 60 nM with MV-4-11, 70 nM with SK-BR3/BT474 and under 30 nM in the assay on PC-3.

Turning to `Cn1cc(-c2ccc(-c3ccc4ncc5c(c4c3)n(C3CCN(S(C)(=O)=O)CC3)c(=O)n5C)cn2)cn1` [Example 59, 3-methyl-8-(6-(1-methyl-1H-pyrazol-4-yl)pyridin-3-yl)-1-(1-(methanesulfonyl)piperidin-4-yl)-1H-imidazo[4,5-c]quinolin-2(3H)-one], the EC50 with MV-4-11 is 100 nM; in the assay with SK-BR3/BT474, under 100 nM; in the assay on PC-3, 30 nM.

`Cn1cc(-c2ccc(-c3ccc4ncc5c(c4c3)n(C3CCN(S(C)(=O)=O)CC3)c(=O)n5C)cn2)nn1` [Example 60, 3-methyl-8-(6-(1-methyl-1H-1,2,3-triazol-4-yl)pyridin-3-yl)-1-(1-(methanesulfonyl)piperidin-4-yl)-1H-imidazo[4,5-c]quinolin-2(3H)-one]: the EC50 is under 100 nM in the assay with MV-4-11, 40 nM with SK-BR3/BT474 and under 30 nM in the assay on PC-3.

Take `Cn1cc(-c2ccc(-c3ccc4ncc5c(c4c3)n(C3CC4CCC(C3)N4S(C)(=O)=O)c(=O)n5C)cn2)nn1` (stereo not drawn) [Example 61, 3-methyl-8-(6-(1-methyl-1H-1,2,3-triazol-4-yl)pyridin-3-yl)-1-(8-(methanesulfonyl)-8-azabicyclo[3.2.1]octan-3-yl)-1H-imidazo[4,5-c]quinolin-2(3H)-one]: the values for the EC50 with MV-4-11, in the assay on SK-BR3/BT474 and in the assay with PC-3 were under 20 nM, under 10 nM and under 10 nM, respectively.

As for `Cn1cc(-c2ccc(-c3ccc4ncc5c(c4c3)n(C3CC4CCC(C3)N4S(C)(=O)=O)c(=O)n5C)cn2)cn1` (stereo not drawn) [Example 62, 3-methyl-8-(6-(1-methyl-1H-pyrazol-4-yl)pyridin-3-yl)-1-(8-(methanesulfonyl)-8-azabicyclo[3.2.1]octan-3-yl)-1H-imidazo[4,5-c]quinolin-2(3H)-one], the EC50 was under 20 nM in the assay on MV-4-11, under 20 nM with SK-BR3/BT474 and under 10 nM in the assay with PC-3.

The record behind these values is patent publication US10047084B2, “Imidazolone derivatives, pharmaceutical compositions and uses thereof” (BEIJING FORELANDPHARMA CO. LTD., priority 2013, dated 2018).
